Starred links: 1 amine or outer side, 2 acyl side, 3 side chain; linkers in the order of their positions; H or OH if unused. Positions of bridges follow the written chain, without caps; N, C: chain ends. Residues, ends and D or L forms follow the SMILES beside them. Groups on a side chain read outwards from the residue. *: point of attachment. C20 diacid = O=C(O)CCCCCCCCCCCCCCCCCCC(=O)*; C18 diacid = O=C(O)CCCCCCCCCCCCCCCCC(=O)*; γGlu = O=C(O)[C@H](CCC(=O)[*:2])N[*:1]; AEEA = NCCOCCOCC(=O)O
Experiments:
[1] = Assay (III) ThT fibrillation assay for physical stability; type: physicochemical; conditions: pH 4.0, ThT fibrillation assay
How it was run: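 Freshly prepared, pH-adjusted formulations with 1 μM ThT incubated at 37 °C under 960 rpm orbital shaking (1 mm), fluorescence (ex 444, em 485 nm) read every 20 min. […] Peptide content before and after measured by reverse-phase HPLC against pramlintide standard.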

ad libitum fed rat = assay: Assay (I) efficacy testing on appetite (food intake) using an ad libitum fed rat model; type: in vivo, Sprague Dawley (SD) rats
How it was run: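 Ad libitum fed Sprague Dawley rats, 200-250 g, singly housed on reversed light cycle, got one ip, po or sc dose of 0.01-3 mg/kg just before lights off; groups of 5-8 with vehicle control. Food intake recorded hourly for 7 h, then at 24 h and sometimes 48 h; Grubbs outliers excluded.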

SMILES	ThT pH 4.0 lag time [1]	Food intake reduction 0-24 h 3 nmol/kg (%) (ad libitum fed rat)	Food intake reduction 24-48 h 3 nmol/kg (%) (ad libitum fed rat)	Food intake reduction 0-24 h 30 nmol/kg (%) (ad libitum fed rat)	Food intake reduction 24-48 h 30 nmol/kg (%) (ad libitum fed rat)
CC[C@H](C)[C@H](NC(=O)[C@@H]1CCCN1C(=O)CNC(=O)[C@H](Cc1ccccc1)NC(=O)[C@H](CO)NC(=O)[C@H](CO)NC(=O)[C@H](CO)NC(=O)[C@H](CO)NC(=O)[C@H](CCCNC(=N)N)NC(=O)[C@H](Cc1c[nH]cn1)NC(=O)[C@H](CC(C)C)NC(=O)[C@H](Cc1ccccc1)NC(=O)[C@H](CCC(=O)O)NC(=O)[C@H](C)NC(=O)[C@H](CC(C)C)NC(=O)[C@H](CCCNC(=N)N)NC(=O)[C@H](CCC(N)=O)NC(=O)[C@@H](NC(=O)[C@H](C)NC(=O)[C@@H]1CSSC[C@H](NC(=O)[C@H](Cc2c[nH]cn2)NC(=O)CC[C@H](NC(=O)CCCCCCCCCCCCCCCCCCC(=O)O)C(=O)O)C(=O)N[C@@H](CC(N)=O)C(=O)N[C@@H]([C@@H](C)O)C(=O)N[C@@H](C)C(=O)N[C@@H]([C@@H](C)O)C(=O)N1)[C@@H](C)O)C(=O)N[C@@H](CC(C)C)C(=O)N1CCC[C@H]1C(=O)N1CCC[C@H]1C(=O)N[C@H](C(=O)N[C@@H](CC(=O)O)C(=O)N[C@H](C(=O)NCC(=O)N[C@@H](CO)C(=O)N[C@@H](CC(=O)O)C(=O)N[C@H](C(=O)N[C@@H](Cc1ccc(O)cc1)C(N)=O)[C@@H](C)O)C(C)C)[C@@H](C)O [Example 9, N-alpha-[(S)-4-Carboxy-4-(19-carboxynonadecanoylamino)butyryl]-[His1,Glu14,His17,Arg18,Ser21,Ser22,Asp31,Asp35]-pramlintide] ({C20 diacid-γGlu}-HCNTATCATQRLAEFLHRSSSSFGPILPPTDVGSDTY-NH2; disulfide 2-7)	>45 h	39%	32%		
CC[C@H](C)[C@H](NC(=O)[C@@H]1CCCN1C(=O)CNC(=O)[C@H](Cc1ccccc1)NC(=O)[C@H](CC(N)=O)NC(=O)[C@H](CC(N)=O)NC(=O)[C@H](CO)NC(=O)[C@H](CO)NC(=O)[C@H](Cc1c[nH]cn1)NC(=O)[C@H](Cc1c[nH]cn1)NC(=O)[C@H](CC(C)C)NC(=O)[C@H](Cc1ccccc1)NC(=O)[C@H](CCC(=O)O)NC(=O)[C@H](C)NC(=O)[C@H](CC(C)C)NC(=O)[C@H](CCCNC(=N)N)NC(=O)[C@H](CCC(N)=O)NC(=O)[C@@H](NC(=O)[C@H](C)NC(=O)[C@@H]1CSSC[C@H](NC(=O)[C@H](CCCCN)NC(=O)CC[C@H](NC(=O)CCCCCCCCCCCCCCCCCCC(=O)O)C(=O)O)C(=O)N[C@@H](CC(N)=O)C(=O)N[C@@H]([C@@H](C)O)C(=O)N[C@@H](C)C(=O)N[C@@H]([C@@H](C)O)C(=O)N1)[C@@H](C)O)C(=O)N[C@@H](CC(C)C)C(=O)N1CCC[C@H]1C(=O)N1CCC[C@H]1C(=O)N[C@H](C(=O)N[C@@H](CC(N)=O)C(=O)N[C@H](C(=O)NCC(=O)N[C@@H](CO)C(=O)N[C@@H](Cc1c[nH]cn1)C(=O)N[C@H](C(=O)N[C@@H](Cc1ccc(O)cc1)C(N)=O)[C@@H](C)O)C(C)C)[C@@H](C)O [Example 55, N-alpha-[(S)-4-Carboxy-4-(19-carboxynonadecanoylamino)butyryl]-[Glu14,His17,His35]-pramlintide] ({C20 diacid-γGlu}-KCNTATCATQRLAEFLHHSSNNFGPILPPTNVGSHTY-NH2; disulfide 2-7 (inferred))	37 h	58%	40%	88%	90%
CC[C@H](C)[C@H](NC(=O)[C@@H]1CCCN1C(=O)CNC(=O)[C@H](Cc1ccccc1)NC(=O)[C@H](CC(N)=O)NC(=O)[C@H](CC(N)=O)NC(=O)[C@H](CO)NC(=O)[C@H](CO)NC(=O)[C@H](Cc1c[nH]cn1)NC(=O)[C@H](Cc1c[nH]cn1)NC(=O)[C@H](CC(C)C)NC(=O)[C@H](Cc1ccccc1)NC(=O)[C@H](CCC(=O)O)NC(=O)[C@H](C)NC(=O)[C@H](CC(C)C)NC(=O)[C@H](CCCNC(=N)N)NC(=O)[C@H](CCC(N)=O)NC(=O)[C@@H](NC(=O)[C@H](C)NC(=O)[C@@H]1CSSC[C@H](NC(=O)[C@H](CCCCN)NC(=O)CC[C@H](NC(=O)CCCCCCCCCCCCCCCCCCC(=O)O)C(=O)O)C(=O)N[C@@H](CC(N)=O)C(=O)N[C@@H]([C@@H](C)O)C(=O)N[C@@H](C)C(=O)N[C@@H]([C@@H](C)O)C(=O)N1)[C@@H](C)O)C(=O)N[C@@H](CC(C)C)C(=O)N1CCC[C@H]1C(=O)N1CCC[C@H]1C(=O)N[C@H](C(=O)N[C@@H](CC(N)=O)C(=O)N[C@H](C(=O)NCC(=O)N[C@@H](CO)C(=O)N[C@@H](CC(N)=O)C(=O)N[C@H](C(=O)N1CCC[C@H]1C(N)=O)[C@@H](C)O)C(C)C)[C@@H](C)O [Example 52, N-alpha-[(S)-4-Carboxy-4-(19-carboxynonadecanoylamino)butyryl]-[Glu14,His17,Pro37]-pramlintide] ({C20 diacid-γGlu}-KCNTATCATQRLAEFLHHSSNNFGPILPPTNVGSNTP-NH2; disulfide 2-7)	>45 h	62%	74%		
CC[C@H](C)[C@H](NC(=O)[C@@H]1CCCN1C(=O)CNC(=O)[C@H](Cc1ccccc1)NC(=O)[C@H](CC(N)=O)NC(=O)[C@H](CC(N)=O)NC(=O)[C@H](CO)NC(=O)[C@H](CO)NC(=O)[C@H](Cc1c[nH]cn1)NC(=O)[C@H](CCCNC(=N)N)NC(=O)[C@H](CC(C)C)NC(=O)[C@H](Cc1ccccc1)NC(=O)[C@H](CCC(=O)O)NC(=O)[C@H](C)NC(=O)[C@H](CC(C)C)NC(=O)[C@H](CCCNC(=N)N)NC(=O)[C@H](CCC(N)=O)NC(=O)[C@@H](NC(=O)[C@H](C)NC(=O)[C@@H]1CSSC[C@H](NC(=O)[C@H](Cc2c[nH]cn2)NC(=O)[C@H](Cc2c[nH]cn2)NC(=O)[C@H](Cc2c[nH]cn2)NC(=O)CC[C@H](NC(=O)CCCCCCCCCCCCCCCCCCC(=O)O)C(=O)O)C(=O)N[C@@H](CC(N)=O)C(=O)N[C@@H]([C@@H](C)O)C(=O)N[C@@H](C)C(=O)N[C@@H]([C@@H](C)O)C(=O)N1)[C@@H](C)O)C(=O)N[C@@H](CC(C)C)C(=O)N1CCC[C@H]1C(=O)N1CCC[C@H]1C(=O)N[C@H](C(=O)N[C@@H](CC(N)=O)C(=O)N[C@H](C(=O)NCC(=O)N[C@@H](CO)C(=O)N[C@@H](CC(N)=O)C(=O)N[C@H](C(=O)N[C@@H](Cc1ccc(O)cc1)C(N)=O)[C@@H](C)O)C(C)C)[C@@H](C)O [Example 12, N-alpha-[(S)-4-Carboxy-4-(19-carboxynonadecanoylamino)butyryl]-His-His-[His1,Glu14,Arg17]-pramlintide] ({C20 diacid-γGlu}-HHHCNTATCATQRLAEFLRHSSNNFGPILPPTNVGSNTY-NH2; disulfide 4-9 (inferred))	>45 h			70%	45%
CC[C@H](C)[C@H](NC(=O)[C@H](CCCCNC(=O)COCCOCCNC(=O)COCCOCCNC(=O)CC[C@H](NC(=O)CCCCCCCCCCCCCCCCC(=O)O)C(=O)O)NC(=O)CNC(=O)[C@H](Cc1ccccc1)NC(=O)[C@H](CC(N)=O)NC(=O)[C@H](CC(N)=O)NC(=O)[C@H](CO)NC(=O)[C@H](CO)NC(=O)[C@H](Cc1c[nH]cn1)NC(=O)[C@H](Cc1c[nH]cn1)NC(=O)[C@H](CC(C)C)NC(=O)[C@H](Cc1ccccc1)NC(=O)[C@H](CCC(=O)O)NC(=O)[C@H](C)NC(=O)[C@H](CC(C)C)NC(=O)[C@H](CCCNC(=N)N)NC(=O)[C@H](CCC(N)=O)NC(=O)[C@@H](NC(=O)[C@H](C)NC(=O)[C@@H]1CSSC[C@H](NC(=O)[C@@H](N)CCCCN)C(=O)N[C@@H](CC(N)=O)C(=O)N[C@@H]([C@@H](C)O)C(=O)N[C@@H](C)C(=O)N[C@@H]([C@@H](C)O)C(=O)N1)[C@@H](C)O)C(=O)N[C@@H](CC(C)C)C(=O)N1CCC[C@H]1C(=O)N1CCC[C@H]1C(=O)N[C@H](C(=O)N[C@@H](CC(N)=O)C(=O)N[C@H](C(=O)NCC(=O)N[C@@H](CO)C(=O)N[C@@H](CC(N)=O)C(=O)N[C@H](C(=O)N[C@@H](Cc1ccc(O)cc1)C(N)=O)[C@@H](C)O)C(C)C)[C@@H](C)O [Example 73, N-epsilon25-[2-(2-{2-[2-(2-{2-[(S)-4-Carboxy-4-(17-carboxyheptadecanoylamino)butyrylamino]ethoxy}ethoxy)acetylamino]ethoxy}ethoxy)acetyl]-[Glu14,His17,Lys25]-pramlintide] (H-KCNTATCATQRLAEFLHHSSNNFGK([AEEA-AEEA-γGlu-C18 diacid])ILPPTNVGSNTY-NH2; disulfide 2-7; N-terminus assumed)	>45 h	29%	2%		

From patent publication US8741836B2, “Polypeptides” (Novo Nordisk A/S, priority 2011, dated 2014)
